This is an account of results in paper PMC10541411 (Nature Communications, 2023).

Ends that are not written are not given here. Me2 = dimethyl-lysine

Experiment [1] concerns the target 53BP1^TT-CC (tandem Tudor domain of 53BP1, residues 1481-1603, E1549C/E1567C), disulfide-crosslinked homodimer (UniProt Q12888). The experiment is described as follows: AUC; sedimentation velocity of 53BP1^TT-CC (20 uM) without DTT; 20 °C, 20 mM sodium phosphate pH 7.5, 50 mM NaCl.
Experiment [2] deals with T1, 53BP1^TT homodimer (Homo sapiens, UniProt Q12888).
T1 construct: The tandem Tudor domain of 53BP1 (53BP1^TT, residues 1481–1603) was purified as previously described; made in house; host or cells: E. coli (only for the SAXS sample)
T1 sequence (Q12888 1481-1603): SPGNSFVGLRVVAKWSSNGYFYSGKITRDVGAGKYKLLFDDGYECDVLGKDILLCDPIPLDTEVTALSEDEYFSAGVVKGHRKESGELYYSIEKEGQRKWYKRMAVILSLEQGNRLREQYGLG
The experiment is described as follows: 2D longitudinal 1H-15N-heteronuclear ZZ-exchange NMR spectroscopy, protomer interconversion. Type of experiment: binding. The following applies: 25 °C, 1 mM 15N-labeled 53BP1TT and 9 mM UNC2170, signals of E1524. As for the experimental part: (§1) All NMR data were collected at 25 °C on a 700 MHz Bruker Avance III spectrometer equipped with a cryoprobe. Data were processed and analyzed with NMRPipe[54] and NMRViewJ[55],[56].
The protomer interconversion rates in the 53BP1^TT-UNC2970 complex were determined using 2D longitudinal ^1H-^15N-heteronuclear ZZ-exchange NMR spectroscopy[22]–[24]. For these experiments, a series of 11 spectra were acquired with mixing times of 0, 100, 200, 300, 400, 500, 600, 700, 800, 900, and 1000 ms in 25 mM sodium phosphate, pH 7.0, 100 mM NaCl, 1.5 mM NaN3, 0.3 mM DSS, 90% H2O/10% D2O. The interconversion rates were obtained from nonlinear fitting of auto peak and exchange peak intensities accounting for two-site exchange and ^15N R1 relaxation using the equations previously described for a two-state model.

The target of experiment [3] is T2, 53BP1^TT-PN (E1549P/D1550N) (Homo sapiens, UniProt Q12888, D1550N/E1549P).
T2 construct: The tandem Tudor domain of 53BP1 (53BP1^TT, residues 1481–1603) was purified as previously described; made in house
T2 sequence (Q12888 1481-1603 E1549P/D1550N): as the sequence (Q12888 1481-1603) above, with E69P, D70N counted along it
The experiment is described as follows: 1H-15N HSQC NMR titration of 15N-labeled 53BP1TT-PN. The experiment is classed as binding. The following applies: up to fourfold molar excess. As for the experimental part: as §1
(§2) To probe chemical shift perturbations, ^1H-^15N HSQC spectra were acquired on the following samples: 0.2 mM ^15N-labeled 53BP1^TT WT and 53BP1^TT-PN in 25 mM sodium phosphate, pH 7.0, 1.5 mM NaN3, 0.3 mM DSS, 90% H2O/10% D2O, free and incrementally titrated with various non-labeled inhibitors (UNC1078, UNC1118, UNC2170, UNC2991, UNC3474), as well as with H4KC20me2 and p53K382me2 peptides. Chemical shift perturbations (Δδ) were calculated using the Eq. (1):1 Δδ=(ΔN/5)^2+ΔH^2 where ΔN and ΔH are the corresponding differences in ^15N and ^1H chemical shifts between the bound and free forms of 53BP1.

For experiment [4], the target named is T3, 53BP1^TT (Homo sapiens, UniProt Q12888).
T3 construct: The tandem Tudor domain of 53BP1 (53BP1^TT, residues 1481–1603) was purified as previously described; made in house; host or cells: E. coli (only for the SAXS sample)
T3 sequence (Q12888 1481-1603): as the sequence (Q12888 1481-1603) above
The arrangement: method as in PMID 25590533. The following applies: previously identified; read-out: dissociation constant (Kd); cited from earlier work.

Experiment [5] has as its target 53BP1^TT WT (Homo sapiens, UniProt Q12888). The experiment is described as follows: 1H-15N HSQC NMR titration of 15N-labeled wild-type 53BP1TT. The following applies: 15N-labeled WT 53BP1TT. Type of experiment: binding. Also noted: The tandem Tudor domain of 53BP1 (53BP1^TT, residues 1481–1603) was purified as previously described; made in house; host or cells: E. coli (only for the SAXS sample). As for the experimental part: as §1, §2

Experiment [6] deals with T4, 53BP1^TT (tandem Tudor domain of 53BP1, residues 1481–1603) (Homo sapiens, UniProt Q12888).
T4 construct: The tandem Tudor domain of 53BP1 (53BP1^TT, residues 1481–1603) was purified as previously described; made in house; host or cells: E. coli (only for the SAXS sample)
T4 sequence (Q12888 1481-1603): as above
The experiment is described as follows: Isothermal titration calorimetry (ITC) of small molecules with 53BP1TT. Type of experiment: binding. The following applies: 25 °C, 50 mM Tris-HCl pH 7.5, 50 mM NaCl, one-site model; read-out: Kd (apparent, ITC). As for the experimental part:
The ITC measurements were performed at 25 °C using a MicroCal iTC200 calorimeter. 53BP1^TT and the small molecules (UNC2991, UNC3351, UNC3474) were in 50 mM Tris-HCl, pH 7.5, 50 mM NaCl. In a typical run, 53BP1^TT was in the reaction cell at a concentration of 150 to 160 μM while the small molecule, in the titration syringe at a concentration of 0.8–2 mM, was delivered as 2 μL injections every 3 min. The titrations were paired with control experiments for heat of dilution. The titration of 53BP1^TT with UNC1118 was performed using a MicroCal VP-ITC calorimeter. ITC data were fitted to a one-site model using a Levenberg-Marquardt non-linear regression algorithm programmed in the Origin 7.0 software.
Supplementary Figure 1 | Interaction of 53BP1TT with small molecules probed using isothermal titration calorimetry (ITC) and small-angle X-ray scattering (SAXS). a, ITC of the interaction of UNC2991, UNC3351 and UNC3474 with 53BP1TT. Raw titration data and integrated heat measurements are shown. Indicated apparent Kds with associated standard deviations were determined by nonlinear least-squares analysis.
1.33 and 2 mg/mL with an exposure time of 0.5 s, without and with 10-fold molar excess of UNC1118 or UNC3474. The error bars in the scattering curves were generated using PRIMUS in the data analysis software ATSAS 2.4.2 and represent mean ± standard deviation calculated from signal intensity scaling and merging for the three different 53BP1TT concentrations. The Guinier plots, dimensionless Kratky plots and pair distance distribution functions derived from the SAXS data are shown. Also shown are the crystal structures of 53BP1TT and 53BP1TT-UNC3474 overlaid to the corresponding SAXS-based ab initio molecular envelopes generated using GASBOR 2.3i. c, Interaction of UNC1118 with 53BP1TT characterized using ITC (left) and NMR spectroscopy (right).
For the ITC, raw titration data and integrated heat measurements are shown. The indicated Kd with associated standard deviation was determined by nonlinear least-squares analysis.
(1 picture or pasted object on this page, not shown here)
(In ITC the heat of successive injections is recorded.)

Sequence of 53BP1^TT WT (Q12888 1481-1603): as above

For the compound “53BP1^TT-CC (tandem Tudor domain of 53BP1, residues 1481-1603, E1549C/E1567C), disulfide-crosslinked homodimer (from UniProt Q12888 1481-1603) (domain or fragment)”, in experiment [1], the stoichiometry N (in general, a count of units in the complex or per binding partner) was found to be 2.
Take `CC(C)(C)NCCCNC(=O)c1cccc(Br)c1` [UNC2170]: in experiment [2], the “interconversion rate kAB between the two protomers in the 53BP1TT dimer” value was found to be 1.7 s⁻¹ and the “interconversion rate kBA between the two protomers in the 53BP1TT dimer” value came out at 1.2 s⁻¹. The “interaction with 53BP1TT-PN (1H-15N HSQC titration)” value (from here on “interaction with 53BP1TT-PN”) in experiment [3] is given as “did not interact”. The Kd in experiment [4] is 22 ± 2.5 µM. Moreover, the “changes in signal positions in the 1H-15N HSQC spectrum of 53BP1TT upon titration” value (shortened to “changes in signal positions”) in experiment [5] is given as “slow exchange on the chemical shift time scale”.
As for `CC(C)(C)NCCCNC(=O)c1cccc(I)c1` [UNC2991], the Kd in experiment [6] is 3.9 ± 0.4 µM. Also, the “interaction with 53BP1TT-PN” value in experiment [3] is on record as “did not interact”. In addition, in experiment [5], the “changes in signal positions” value was “slow exchange on the chemical shift time scale”.
On to `CC(C)(C)NCCCNC(=O)c1cccc(C(F)(F)F)c1` [UNC3351], for which the Kd in experiment [6] was found to be 6.8 ± 0.4 µM. For the same compound, the “changes in signal positions” value in experiment [5] is given as “slow exchange on the chemical shift time scale”.
As to “H4KC20me2: dimethylated histone H4 peptide (residues 12–25) with chemically installed dimethyl-lysine analog (KGGAKRHRCVLRDN; dimethyl-lysine analog at position 20 (KC20me2), installed chemically) [reference compound]”, the “interaction with 53BP1TT-PN” value in experiment [3] is given as “bound”.
As to “p53K382me2: dimethylated p53 peptide (residues 377–386) purchased from GenScript (TSRHKK(Me2)LMFK) [reference compound]”, the “interaction with 53BP1TT-PN” value in experiment [3] was “bound”.
